Measured values published in DBAASP.
Converted amounts (≈) assume the structure as drawn.

Experiments:
Experiment in all cases: ≥ marks a high value that may be exact or a test limit, other limits are often not marked, values filed in µg/mL are converted to µM
Staphylococcus aureus = tested on: Staphylococcus aureus
Escherichia coli = tested on: Escherichia coli
Leuconostoc lactis = tested on: Leuconostoc lactis
Pasteurella multocida = tested on: Pasteurella multocida
Bacillus cereus = tested on: Bacillus cereus
Micrococcus luteus = tested on: Micrococcus luteus
Streptococcus uberis = tested on: Streptococcus uberis
Listeria innocua = tested on: Listeria innocua
[1] = tested on: Staphylococcus epidermidis
[2] = tested on: Staphylococcus aureus ATCC 25923
[3] = tested on: Escherichia coli ATCC 25922
[4] = tested on: Candida albicans ATCC 2002
[5] = tested on: Pseudomonas aeruginosa CMCCB 10104
Pseudomonas aeruginosa = tested on: Pseudomonas aeruginosa
Staphylococcus aureus MR = tested on: Staphylococcus aureus MR

Row | MIC (Staphylococcus aureus) [µM] | MIC (Escherichia coli) [µM] | MIC (Leuconostoc lactis) [µM] | MIC (Pasteurella multocida) [µM] | MIC (Bacillus cereus) [µM] | MIC (Micrococcus luteus) [µM] | MIC (Streptococcus uberis) [µM] | MIC (Listeria innocua) [µM] | MIC [1] [µM] | MIC [2] [µM] | MIC [3] [µM] | MIC [4] [µM] | MIC [5] [µM] | MIC (Pseudomonas aeruginosa) [µM] | MIC (Staphylococcus aureus MR) [µM] | SMILES
1 | 28.8 (≈ 50 µg/mL) | > 57.5 | 6.9 (≈ 12 µg/mL) | ≥ 57.5 | ≥ 57.5 | ≥ 57.5 | ≥ 57.5 | ≥ 57.5 | ≥ 57.5 |  |  |  |  |  |  | CC[C@H](C)[C@H](NC(=O)[C@H](CO)NC(=O)CNC(=O)[C@H](C)NC(=O)[C@@H](NC(=O)[C@H](Cc1cnc[nH]1)NC(=O)CNC(=O)[C@H](C)NC(=O)[C@@H](NC(=O)[C@H](CCCCN)NC(=O)[C@H](CCCCN)NC(=O)[C@@H](NC(=O)[C@@H](NC(=O)[C@H](CC(=O)O)NC(=O)[C@H](Cc1ccccc1)NC(=O)[C@H](CC(C)C)NC(=O)CN)[C@@H](C)CC)C(C)C)[C@@H](C)CC)[C@@H](C)CC)C(N)=O [GLFDIVKKIAGHIAGSI]
2 |  |  |  |  |  |  |  |  |  | 1.55 (≈ 4.2 µg/mL) | 1.55 (≈ 4.2 µg/mL) | 0.773 (≈ 2.1 µg/mL) | 0.773 (≈ 2.1 µg/mL) |  |  | CC[C@H](C)[C@H](NC(=O)CNC(=O)[C@H](CCCCN)NC(=O)CNC(=O)[C@H](C)NC(=O)[C@H](Cc1ccccc1)NC(=O)[C@H](CCCCN)NC(=O)[C@H](CO)NC(=O)[C@H](Cc1ccccc1)NC(=O)[C@H](CC(C)C)NC(=O)CN)C(=O)N[C@@H](CCCCN)C(=O)N[C@@H](CC(N)=O)C(=O)N[C@@H](Cc1ccccc1)C(=O)N[C@@H](CC(C)C)C(=O)N[C@@H](CC(N)=O)C(=O)N[C@@H](CCCCN)C(=O)NCC(=O)N[C@H](C(=O)N[C@@H](CCCCN)C(=O)N[C@@H](Cc1cnc[nH]1)C(=O)N[C@H](C(=O)NCC(=O)N[C@@H](CCCCN)C(=O)N[C@@H](CCC(=O)O)C(=O)O)[C@@H](C)CC)C(C)C [GLFSKFAGKGIKNFLNKGVKHIGKE]
3 |  |  |  |  |  |  |  |  |  | 0.993 (≈ 3.3 µg/mL) | 1.99 (≈ 6.6 µg/mL) | 0.993 (≈ 3.3 µg/mL) | 1.99 (≈ 6.6 µg/mL) |  |  | CC[C@H](C)[C@H](NC(=O)[C@H](CC(C)C)NC(=O)[C@H](CC(C)C)NC(=O)[C@H](CC(=O)O)NC(=O)[C@H](CCCCN)NC(=O)[C@@H](NC(=O)[C@@H](NC(=O)CNC(=O)[C@H](CCSC)NC(=O)[C@@H](NC(=O)[C@@H](N)CO)C(C)C)[C@@H](C)O)C(C)C)C(=O)NCC(=O)N[C@@H](C)C(=O)NCC(=O)N[C@@H](CCCCN)C(=O)N[C@@H](CO)C(=O)N[C@@H](C)C(=O)N[C@@H](C)C(=O)N[C@@H](CCC(N)=O)C(=O)N[C@@H](CO)C(=O)N[C@H](C(=O)N[C@@H](CC(C)C)C(=O)N[C@@H](CCCCN)C(=O)N[C@@H](CO)C(=O)N[C@@H](CC(C)C)C(=O)N[C@@H](CO)C(=O)N[C@H]1CSSC[C@@H](C(=O)O)NC(=O)[C@H](CC(=O)O)NC(=O)[C@H](CC(N)=O)NC(=O)[C@H](CO)NC(=O)[C@H](CC(C)C)NC(=O)[C@H](CCCCN)NC1=O)C(C)C [SVMGTVKDLLIGAGKSAAQSVLKSLSCKLSNDC]
4 | 7.3 (≈ 12 µg/mL) | 30.4 (≈ 50 µg/mL) | 1.83 (≈ 3 µg/mL) | ≥ 60.9 | 15.2 (≈ 25 µg/mL) | 3.65 (≈ 6 µg/mL) | 15.2 (≈ 25 µg/mL) | 7.3 (≈ 12 µg/mL) | 3.65 (≈ 6 µg/mL) |  |  |  |  |  |  | CC[C@H](C)[C@H](NC(=O)[C@@H](NC(=O)[C@H](C)NC(=O)[C@H](Cc1ccccc1)NC(=O)[C@H](CC(C)C)NC(=O)CN)C(C)C)C(=O)N[C@@H](CCCCN)C(=O)N[C@@H](CCCCN)C(=O)N[C@H](C(=O)N[C@@H](C)C(=O)N[C@@H](CO)C(=O)N[C@H](C(=O)N[C@H](C(=O)N[C@@H](CCCCN)C(=O)NCC(=O)N[C@@H](CC(C)C)C(N)=O)[C@@H](C)CC)C(C)C)C(C)C [GLFAVIKKVASVIKGL]
5 | 9.82 (≈ 25 µg/mL) | > 39.3 | 4.91 (≈ 12.5 µg/mL) | 19.6 (≈ 50 µg/mL) | ≥ 39.3 | 4.91 (≈ 12.5 µg/mL) | 9.82 (≈ 25 µg/mL) | 9.82 (≈ 25 µg/mL) | ≥ 39.3 |  |  |  |  |  |  | CC[C@H](C)[C@H](NC(=O)[C@@H](NC(=O)CNC(=O)[C@@H](NC(=O)[C@@H](NC(=O)[C@H](Cc1cnc[nH]1)NC(=O)[C@@H]1CCCN1C(=O)[C@H](CC(C)C)NC(=O)[C@@H](NC(=O)[C@H](Cc1cnc[nH]1)NC(=O)[C@H](CCCCN)NC(=O)[C@H](C)NC(=O)[C@@H](NC(=O)[C@H](CO)NC(=O)CNC(=O)[C@H](CC(C)C)NC(=O)[C@@H](NC(=O)[C@H](CO)NC(=O)[C@H](CC(C)C)NC(=O)[C@H](CC(C)C)NC(=O)CN)C(C)C)C(C)C)C(C)C)C(C)C)C(C)C)C(C)C)C(=O)N[C@@H](C)C(=O)N[C@@H](CCC(=O)O)C(=O)N[C@@H](Cc1cnc[nH]1)C(=O)N[C@@H](CC(C)C)C(N)=O [GLLSVLGSVAKHVLPHVVGVIAEHL]
6 |  |  |  |  |  |  |  |  |  | 1.74 (≈ 3.6 µg/mL) | 3.47 (≈ 7.19 µg/mL) | 3.47 (≈ 7.19 µg/mL) | 6.84 (≈ 14.2 µg/mL) |  |  | CC[C@H](C)[C@H](NC(=O)CN)C(=O)N[C@@H](CC(C)C)C(=O)N[C@@H](CO)C(=O)NCC(=O)N[C@H](C(=O)N[C@@H](CC(C)C)C(=O)NCC(=O)N[C@@H](CCSC)C(=O)NCC(=O)N[C@@H](CCCCN)C(=O)N[C@@H](CCCCN)C(=O)N[C@H](C(=O)N[C@H](C(=O)N[C@H]1CSSC[C@@H](C(=O)O)NC(=O)[C@H](CC(C)C)NC(=O)CNC(=O)[C@H](CCCN=C(N)N)NC(=O)[C@H](CC(C)C)NC(=O)CNC1=O)C(C)C)[C@@H](C)CC)C(C)C [GILSGVLGMGKKIVCGLRGLC]
7 | 15.5 (≈ 25 µg/mL) | > 61.9 | 1.86 (≈ 3 µg/mL) | ≥ 61.9 | 15.5 (≈ 25 µg/mL) | 7.43 (≈ 12 µg/mL) | 7.43 (≈ 12 µg/mL) | ≥ 61.9 | 15.5 (≈ 25 µg/mL) |  |  |  |  |  |  | CC[C@H](C)[C@H](NC(=O)[C@H](CC(=O)O)NC(=O)[C@H](Cc1ccccc1)NC(=O)[C@H](CC(C)C)NC(=O)CN)C(=O)N[C@H](C(=O)N[C@@H](CCCCN)C(=O)N[C@@H](CCCCN)C(=O)N[C@H](C(=O)N[C@@H](C)C(=O)N[C@@H](CO)C(=O)N[C@H](C(=O)N[C@H](C(=O)NCC(=O)NCC(=O)N[C@@H](CC(C)C)C(N)=O)C(C)C)C(C)C)C(C)C)[C@@H](C)CC [GLFDIIKKVASVVGGL]
8 | 25.8 | 25.8 |  |  |  |  |  |  |  |  |  |  |  | > 51.6 | ≥ 51.6 | CC[C@H](C)[C@H](NC(=O)[C@H](C)NC(=O)[C@H](CC(C)C)NC(=O)[C@H](CS)NC(=O)[C@H](Cc1cnc[nH]1)NC(=O)[C@H](C)N)C(=O)NCC(=O)N[C@@H](CCCN=C(N)N)C(=O)N[C@@H](CCCCN)C(N)=O [AHCLAIGRK]
9 | 14.1 (≈ 25 µg/mL) | > 56.2 | 1.69 (≈ 3 µg/mL) | ≥ 56.2 | 14.1 (≈ 25 µg/mL) | 14.1 (≈ 25 µg/mL) | 7.03 (≈ 12.5 µg/mL) | 28.1 (≈ 50 µg/mL) | 7.03 (≈ 12.5 µg/mL) |  |  |  |  |  |  | CC[C@H](C)[C@H](NC(=O)[C@@H](NC(=O)CN)C(C)C)C(=O)N[C@@H](CC(=O)O)C(=O)N[C@@H](C)C(=O)N[C@@H](C)C(=O)N[C@@H](CCCCN)C(=O)N[C@@H](CCCCN)C(=O)N[C@H](C(=O)N[C@H](C(=O)N[C@@H](CC(N)=O)C(=O)N[C@H](C(=O)N[C@@H](CC(C)C)C(=O)N[C@@H](CCCCN)C(=O)N[C@@H](CC(N)=O)C(=O)N[C@@H](CC(C)C)C(=O)N1CCC[C@H]1C(N)=O)C(C)C)C(C)C)C(C)C [GVIDAAKKVVNVLKNLP]
10 |  |  |  |  |  |  |  |  |  | > 28.5 | > 28.5 | 28.5 (≈ 99.9 µg/mL) | 28.5 (≈ 99.9 µg/mL) |  |  | CC(C)C[C@@H]1NC(=O)[C@H](CCCN=C(N)N)NC(=O)[C@H](CC(C)C)NC(=O)[C@H](CC(C)C)NC(=O)[C@H](Cc2c[nH]c3ccccc23)NC(=O)[C@H](C(C)C)NC(=O)[C@H](Cc2ccc(O)cc2)NC(=O)[C@H](CC(C)C)NC(=O)[C@H](C(C)C)NC(=O)[C@H](CCC(N)=O)NC(=O)[C@@H](NC(=O)[C@H](Cc2ccccc2)NC(=O)[C@H](CC(N)=O)NC(=O)[C@H](CC(N)=O)NC(=O)[C@@H](N)CCCCN)CSSC[C@@H](C(=O)N[C@@H](Cc2ccccc2)C(=O)N[C@H](C(=O)N[C@@H](CCCCN)C(=O)N[C@@H](Cc2ccccc2)C(=O)N[C@@H](CO)C(=O)N[C@@H](CCCCN)C(=O)N[C@@H](CC(=O)O)C(=O)N[C@H](C(=O)N[C@@H](CCC(=O)O)C(=O)N[C@H](C(=O)O)[C@@H](C)O)C(C)C)C(C)C)NC(=O)[C@H](CCC(N)=O)NC(=O)[C@H](CCCCN)NC(=O)CNC1=O [KNNFCQVLYVWLLRLGKQCFVKFSKDVET]
11 | 3.53 (≈ 6 µg/mL) | 29.4 (≈ 50 µg/mL) | 3.53 (≈ 6 µg/mL) | ≥ 58.8 | 7.05 (≈ 12 µg/mL) | 7.05 (≈ 12 µg/mL) | 7.05 (≈ 12 µg/mL) | 14.7 (≈ 25 µg/mL) | 3.53 (≈ 6 µg/mL) |  |  |  |  |  |  | CC[C@H](C)[C@H](NC(=O)[C@@H](NC(=O)[C@H](CC(=O)O)NC(=O)[C@H](Cc1ccccc1)NC(=O)[C@H](CC(C)C)NC(=O)CN)C(C)C)C(=O)N[C@@H](C)C(=O)N[C@@H](CCCCN)C(=O)N[C@H](C(=O)N[C@@H](C)C(=O)N[C@@H](CO)C(=O)N[C@H](C(=O)N[C@H](C(=O)N[C@@H](CCCCN)C(=O)N[C@@H](CCCCN)C(=O)N[C@@H](CC(C)C)C(N)=O)[C@@H](C)CC)C(C)C)C(C)C [GLFDVIAKVASVIKKL]
